# Assay results published in patent publication US9758787B2, “Engineering microorganisms” (DSM NUTRITIONAL PRODUCTS AG, priority 2011, dated 2017).
# How the values were obtained:
# [1] = tested on: Thraustochytrium sp. ONC-T18; assay: Effects of different antibiotics on growth of ONC-T18 on ONC-T18-GM0 agar plates (Example 3); assay type: cell-based; parameters: sensitivity of ONC-T18 cells to zeocin: dose or concentration left out as unconfirmed
# Method: Thraustochytrium sp. ONC-T18 was grown on agar plates (20 g agar per liter ONC-T18-GM0). One loop of inoculum of ONC-T18 was inoculated into 50 mL of liquid ONC-T18-GM0, and the culture was incubated in a shaker incubator at 25° C. at 250 rpm for 36 hours. Half a milliliter of the culture was transferred into a 1.5 mL tube and vortexed at full speed for 30 seconds to break down cell clusters, then diluted in 50 mL sterilized water. One hundred microliters of the resulting solution was spread onto each ONC-T18-GM0 medium plate. Each plate contained one of various antibiotics at one of various concentrations. Plates were incubated at 25° C. and emergence and development of colonies were observed daily.
# [2] = tested on: Thraustochytrium sp. ONC-T18; assay: Effects of zeocin and salinity on colony numbers and colony diameter of ONC-T18 (Example 4); assay type: cell-based; conditions: for colony numbers: 10 days; for colony numbers / colony growth rates (diameter in mm): mean of two plates
# Method: One hundred μL of ONC-T18 cell suspension diluted at 1:500 from a 2-day culture were spread onto ONC-T18-GM0 plates containing various concentrations of antibiotic zeocin and sea salt. Inoculated plates were incubated in a 25° C. incubator for 10 days. The numbers of the colonies on each plate were counted. […] In plates containing 8.5 g/L sea salt without zeocin, only one colony was observed. In plates containing 18 g/L sea salt without zeocin, colony numbers were similar to that of plates containing 35 g/L sea salt without zeocin. […] Therefore, for this work, 18 g/L sea salt was used to make ONC-T18-GM0 for selection of ONC-T18 transformants transformed with constructs bearing a zeocin-resistant gene expression cassette.
# [3] = tested on: parental strain (the wild type strain) ONC-T18; assay: Zeocin sensitivity, spotted colonies on agar plates, parental strain (Example 8); assay type: cell-based, Thraustochytrium sp. ONC-T18; conditions: ONC-T18-GM0 agar plates, 18 g/L sea salt
# Method: (§1) A very small amount of inoculum of zeocin-resistant strains that had been transferred three times via colony passages on zeocin/ONC-T18-GM0 agar plates (as well as their parental strain or the wild type strain) was picked from colonies using a 10 μL pipette tip and re-suspended in 50 μL sterilized water in a 200 μL PCR tube. One μL of the cell suspension was spotted on ONC-T18-GM0 agar plates containing 18 g/L sea salt (15 g/L agar) and zeocin at a concentration ranging from 0 to 5000 μg/mL (Invitrogen, CA, USA). The diameters of the spotted colonies were measured on day 1, day 3, day 5, day 7, and day 8.
# [4] = tested on: transformed ONC-T18 strains bearing the zeocin-resistance gene expression cassette; assay: Zeocin sensitivity, spotted colonies on agar plates, transformed strains (Example 8); assay type: cell-based, Thraustochytrium sp. ONC-T18; conditions: 5000 μg/mL zeocin
# Method: as §1
# [5] = tested on: wild type ONC-T18 strains; assay: Growth on zeocin plates after six colony passages without zeocin, wild type (Example 12); assay type: cell-based, Thraustochytrium sp. ONC-T18; conditions: zeocin 200 μg/mL media
# Text: (§2) Transgene stability is important for certain applications of genetic engineering in industrial microbial strain improvement programs where microorganisms are used in pharmaceutical or industrial processes, and where product quantity and quality are paramount. We therefore carried out transgene stability estimate assays of transformed ONC-T18 strains. As for the growth rate assays described in Example 7, inocula of four strains of each transformation as well as their ancestor wild type strains were spotted on ONC-T18-GM0 agar plates in the absence of zeocin and incubated at 25° C. for seven days. (Each transformation had been performed using one of the five different plasmid constructs, each of which bears various zeocin-resistant gene expression cassettes driven by a combination of different promoters and terminators). Then, using the same method, strains were transferred on a new fresh ONC-T18-GM0 agar plate and incubated at 25° C. for 7 days; colony passages were carried out 6 times. Finally, strains were transferred back onto ONC-T18-GM0 agar plates either without or with zeocin at a concentration of 200 μg/mL media.
# [6] = tested on: transformed ONC-T18 strains; assay: Growth on zeocin plates after six colony passages without zeocin, transformed strains (Example 12); assay type: cell-based, Thraustochytrium sp. ONC-T18; conditions: zeocin 200 μg/mL media
# Text: as §2
# [7] = tested on: wild type strain of ONC-T18; assay: Zeocin as mutagenic agent on ONC-T18 agar plates (Example 13); assay type: cell-based, Thraustochytrium sp. ONC-T18
# Method: The marine protist wild type strain of ONC-T18 was chosen as a model system to test if zeocin would be effective to induce mutagenesis in this strain. One full loop of the inocula of ONC-T18, growing in the agar plates containing ONC-T18-GM0 medium[5 g/L yeast extract, 5 g/L peptone, 10 g/L D(+)-glucose, 35 g/L artificial sea salt, 1.25 mg/L trace elements (5 g/L NaH2PO4.H2O, 3.15 g/L FeCl3.6H2O, 4.36 g/L Na2EDTA.2H2O, 0.6125 mg/L CuSO4.5H2O, 0.0597 g/L Na2MoO4.2H2O, 0.022 g/L ZnSO4.7H2O, 0.01 g/L CoCl2.6H2O, 0.18 g/L MnCl2.4H2O, 13 μg/L H2SeO3, 2.7 mg/L NiSO4.6H2O, 1.84 mg/L Na3VO4 and 1.94 mg/L K2CrO4), 1.25 mg/L vitamins (1 mg/L vitamin B12, 1 mg/L biotin, 0.20 g/L thiamine HCl) and 20 g agar per liter], was inoculated into 50 mL liquid ONC-T18-GM0 medium, and incubated in a shaker incubator at 25° C. at 250 rpm for 36 hours. Half a milliliter of culture was transferred into a 1.5 mL tube and vortexed at full speed for 30 seconds, and then diluted in 50 mL sterilized water. One hundred microliters of the diluted inocula were respectively spread on the agar plates containing zeocin at various concentrations (0, 10, 30, 50, and 100 μg/mL). Plates were incubated at 25° C. incubator. The emergence and development of the colonies were observed daily. […] Under these conditions, zeocin was effective within the range of at least 10-200 μg/mL; higher concentrations may well also be effective. For example, concentrations in the range of 200-500 μg/mL or higher could work. […] Under the particular conditions utilized in the present Example, zeocin worked best at 50 μg/mL.
# [8] = cited from earlier work
structure (smiles),measurement,setting,value
"Cc1c(N)nc([C@H](CC(N)=O)NC[C@H](N)C(N)=O)nc1C(=O)N[C@H](C(=O)N[C@H](C)[C@@H](O)[C@H](C)C(=O)N[C@H](C(=O)NCCC1=N[C@@H](c2nc(C(=O)NCCCCN=C(N)N)cs2)CS1)[C@@H](C)O)[C@@H](O[C@@H]1O[C@@H](CO)[C@@H](O)[C@H](O)[C@@H]1O[C@H]1O[C@H](CO)[C@@H](O)[C@H](OC(N)=O)[C@@H]1O)c1cnc[nH]1 [Zeocin, phleomycin D1]",sensitivity of ONC-T18 cells to zeocin,[1],highly sensitive
same,effect on growth of ONC-T18 (summary in words),[1]; ONC-T18-GM0 agar plates,significantly inhibited the growth
same,zeocin concentration that completely inhibited growth of ONC-T18,[2]; ONC-T18-GM0 agar plates containing 18 g/L sea salt,30 µg/mL
same,zeocin concentration needed for complete inhibition of ONC-T18,[2]; ONC-T18-GM0 agar plates containing 35 g/L sea salt,100 µg/mL
same,colony numbers,"[2]; salt 5 g/L, zeocin 10 μg/mL",0
same,colony growth rates (diameter in mm),"[2]; salt 5 g/L, zeocin 10 μg/mL",0 mm
same,colony numbers,"[2]; salt 5 g/L, zeocin 30 μg/mL",0
same,colony growth rates (diameter in mm),"[2]; salt 5 g/L, zeocin 30 μg/mL",0 mm
same,colony numbers,"[2]; salt 5 g/L, zeocin 50 μg/mL",0
same,colony growth rates (diameter in mm),"[2]; salt 5 g/L, zeocin 50 μg/mL",0 mm
same,colony numbers,"[2]; salt 5 g/L, zeocin 100 μg/mL",0
same,colony growth rates (diameter in mm),"[2]; salt 5 g/L, zeocin 100 μg/mL",0 mm
same,colony numbers,"[2]; salt 8.5 g/L, zeocin 10 μg/mL",0
same,colony growth rates (diameter in mm),"[2]; salt 8.5 g/L, zeocin 10 μg/mL",0 mm
same,colony numbers,"[2]; salt 8.5 g/L, zeocin 30 μg/mL",0
same,colony growth rates (diameter in mm),"[2]; salt 8.5 g/L, zeocin 30 μg/mL",0 mm
same,colony numbers,"[2]; salt 8.5 g/L, zeocin 50 μg/mL",0
same,colony growth rates (diameter in mm),"[2]; salt 8.5 g/L, zeocin 50 μg/mL",0 mm
same,colony numbers,"[2]; salt 8.5 g/L, zeocin 100 μg/mL",0
same,colony growth rates (diameter in mm),"[2]; salt 8.5 g/L, zeocin 100 μg/mL",0 mm
same,colony numbers,"[2]; salt 18 g/L, zeocin 10 μg/mL",11
same,colony growth rates (diameter in mm),"[2]; salt 18 g/L, zeocin 10 μg/mL",4.1 mm
same,colony numbers,"[2]; salt 18 g/L, zeocin 30 μg/mL",0
same,colony growth rates (diameter in mm),"[2]; salt 18 g/L, zeocin 30 μg/mL",0 mm
same,colony numbers,"[2]; salt 18 g/L, zeocin 50 μg/mL",0
same,colony growth rates (diameter in mm),"[2]; salt 18 g/L, zeocin 50 μg/mL",0 mm
same,colony numbers,"[2]; salt 18 g/L, zeocin 100 μg/mL",0
same,colony growth rates (diameter in mm),"[2]; salt 18 g/L, zeocin 100 μg/mL",0 mm
same,colony numbers,"[2]; salt 35 g/L, zeocin 10 μg/mL",22.5
same,colony growth rates (diameter in mm),"[2]; salt 35 g/L, zeocin 10 μg/mL",4.1 mm
same,colony numbers,"[2]; salt 35 g/L, zeocin 30 μg/mL",11
same,colony growth rates (diameter in mm),"[2]; salt 35 g/L, zeocin 30 μg/mL",1.9 mm
same,colony numbers,"[2]; salt 35 g/L, zeocin 50 μg/mL",5
same,colony growth rates (diameter in mm),"[2]; salt 35 g/L, zeocin 50 μg/mL",0.6 mm
same,colony numbers,"[2]; salt 35 g/L, zeocin 100 μg/mL",0
same,colony growth rates (diameter in mm),"[2]; salt 35 g/L, zeocin 100 μg/mL",0 mm
same,zeocin concentration at which the parental strain grew,[3],≤ 30 µg/mL
same,growth of transformed strains,[4]; compared with 1000 μg/mL or less,most strains grew remarkably slower
same,zeocin resistance of some transformant strains,"[4]; e.g., FIG. 13 legend",highly resistant
same,growth of wild type strains,[5],none of the wild type strains were able to grow
same,growth of transformed strains,[6],only the transformed strains grew well
same,colonies seen per plate,[7]; 50 μg/mL zeocin,Only a few of colonies were seen
same,colony sectors with visible colony-morphology changes,[7]; 50 μg/mL zeocin,observed in some of the colonies
same,colony numbers per plate,"[7]; 10, 30, and 50 μg/mL zeocin",gradually reduced
same,sizes of the colonies,"[7]; 30 to 50 μg/mL zeocin, six days post inoculation",gradually decreased
same,concentration at which zeocin worked best as mutagen,[7]; conditions of Example 13,50 µg/mL
same,concentration range in which zeocin was effective as mutagen,[7]; conditions of Example 13,10 to 200 µg/mL
same,stability of zeocin,[8]; high salt concentrations,unstable at high salt concentrations
same,solubility of zeocin,[8]; water,water soluble
